Values joined by “and” are separate entries in the source; they are usually repeats but may differ in a detail not shown here. Identical values can stand only once.

Here are results for 2 compounds from patent US20180353460A1, “METHODS OF TREATING UROLOGICAL DISORDERS USING SARMs” (priority 2014, published 2018).

Common to all, as to assay type: in vivo, rat
For data set [1], the system named is prostate, seminal vesicles and levator ani muscle. Nature of the data set: Androgenic and anabolic activity in castrated (ORX) male rats, daily oral gavage for fourteen days. Particulars: castrated rats, comparators. On the procedure:
Male Sprague-Dawley rats weighing approximately 200 g were purchased from Harlan Bioproducts for Science (Indianapolis, Ind.). […] The anabolic and androgenic activity of compound of Formula VIII in intact animals was tested, as well as a dose response evaluation in acutely orchidectomized (ORX) animals. Regenerative effects of the compound of Formula VIII in chronically (9 days) ORX rats was similarly evaluated.
The test article for this study was weighed and dissolved in 10% DMSO (Fisher) diluted with PEG 300 (Acros Organics, NJ) for preparation of the appropriate dosage concentrations. […] Animals were randomly assigned to one of seven groups consisting of 4 to 5 animals per group. Control groups (intact and ORX) were administered vehicle daily. Compound of Formula VIII was administered via oral gavage at doses of 0.01, 0.03, 0.1, 0.3, 0.75, and 1 mg/day to both intact and ORX groups. Where appropriate, animals were castrated on day one of the study. Treatment with compound of Formula VIII began nine days post ORX and was administered daily via oral gavage for fourteen days.
(§1) In addition, ventral prostate, seminal vesicles, and levator ani muscle were removed, individually weighed, normalized to body weight, and expressed as a percentage of intact control. Student's T-test was used to compare individual dose groups to the intact control group. Significance was defined a priori as a P-value <0.05. Ventral prostate and seminal vesicle weights were evaluated as a measure of androgenic activity, whereas levator ani muscle weight was evaluated as a measure of anabolic activity. Blood was collected from the abdominal aorta, centrifuged, and sera were frozen at −80° C. prior to determination of serum hormone levels. Serum luteinizing hormone (LH) and follicle stimulating hormone (FSH) concentrations were determined.
Male Sprague-Dawley rats weighing approximately 200 g were purchased from Harlan Bioproducts for Science (Indianapolis, Ind.). […] Anabolic and androgenic activity of compound of Formula IX in intact animals was evaluated, and the dose response in acutely orchidectomized (ORX) animals was evaluated as well. Regenerative effects of compound of Formula IX in chronically (9 days) ORX rats were also assessed.
The compound was weighed and dissolved in 10% DMSO (Fisher) diluted with PEG 300 (Acros Organics, NJ) for preparation of the appropriate dosage concentrations. […] Intact and ORX animals were randomly assigned to one of seven groups consisting of 4 to 5 animals per group. Control groups (intact and ORX) were administered vehicle daily. Compound of Formula IX was administered via oral gavage at doses of 0.01, 0.03, 0.1, 0.3, 0.75, and 1 mg/day to both intact and ORX groups.
as §1, with “Castrated animals (on day one of the study) were randomly assigned to dose groups (4-5 animals/group) of 0.01, 0.03, 0.1, 0.3, 0.75, and 1 mg/day, for dose-response evaluation. Dosing began nine days post ORX and was administered daily via oral gavage for fourteen days. […] In” for “In”, “As a measure of androgenic activity, ventral” for “Ventral”, “evaluated,” for “evaluated as a measure of androgenic activity,”, “lutenizing” for “luteinizing”
Male Sprague-Dawley rats weighing approximately 200 g were purchased from Harlan Bioproducts for Science (Indianapolis, Ind.).

For data set [2] the test system is unchanged. Nature of the data set: Androgenic and anabolic effects in intact, hemi-orchidectomized and castrated rats, subdermal osmotic pumps, 14 days. The settings on record: 0.5 mg/day; for Levator Ani weight / prostate weight / seminal vesicle weight: n = 5. On the procedure: Male Sprague-Dawley rats were purchased from Harlan Biosciences (Indianapolis, Ind.). The animals were maintained on a 12 h cycle of light and dark with food and water available ad libitum. All animal studies were reviewed and approved. Immature male Sprague-Dawley rats weighing 187 to 214 g were randomly distributed into 9 groups of 5 animals. One day before the initiation of drug treatment, groups 4 through 6 and groups 7 through 9 received unilateral or bilateral orchidectomy, respectively, via a midline scrotal incision. […] All drugs given to animals were freshly prepared as solutions in polyethylene glycol 300 (PEG 300). Groups 4 and 7 received treatment with vehicle alone (i.e., PEG 300). […] Animals in groups 2, 5, and 8 received compound of Formula XII (0.5 mg/day) via implantation of subdermal osmotic pumps. After 14 days of drug treatment, rats were weighed, anesthetized, and sacrificed. The ventral prostates, seminal vesicles, and levator ani muscle were removed and weighed. Osmotic pumps were also removed from animals to check for correct pump operation. The weights of all organs were normalized to body weight, and analyzed for any statistically significant differences between groups using single-factor ANOVA with the alpha value set a priori at p<0.05. The weights of prostates and seminal vesicles were used as indices for evaluation of androgenic activity, and the levator ani muscle weight was used to evaluate the anabolic activity. Statistical analyses of parameters from complete blood count or serum chemical profiling, wherever applicable, were performed by single-factor ANOVA with the alpha value set a priori at p<0.05.

The test system is the same in data set [3]. Nature of the data set: Androgenic and anabolic activity in intact male rats, daily oral gavage. As for the experimental part: Male Sprague-Dawley rats weighing approximately 200 g were purchased from Harlan Bioproducts for Science (Indianapolis, Ind.). The animals were maintained on a 12 h light/dark cycle with food (7012C LM-485 Mouse/Rat Sterilizable Diet, Harlan Teklad, Madison, Wis.) and water available ad libitum. The anabolic and androgenic activity of compound of Formula VIII in intact animals was tested, as well as a dose response evaluation in acutely orchidectomized (ORX) animals. Regenerative effects of the compound of Formula VIII in chronically (9 days) ORX rats was similarly evaluated.
The test article for this study was weighed and dissolved in 10% DMSO (Fisher) diluted with PEG 300 (Acros Organics, NJ) for preparation of the appropriate dosage concentrations. The animals were housed in groups of 2 to 3 animals per cage. Animals were randomly assigned to one of seven groups consisting of 4 to 5 animals per group. Control groups (intact and ORX) were administered vehicle daily. Compound of Formula VIII was administered via oral gavage at doses of 0.01, 0.03, 0.1, 0.3, 0.75, and 1 mg/day to both intact and ORX groups. Where appropriate, animals were castrated on day one of the study. Treatment with compound of Formula VIII began nine days post ORX and was administered daily via oral gavage for fourteen days.
as §1, with “The animals were sacrificed under anesthesia (ketamine/xyalzine, 87:13 mg/kg) and body weights were recorded. In” for “In”
Male Sprague-Dawley rats weighing approximately 200 g were purchased from Harlan Bioproducts for Science (Indianapolis, Ind.). The animals were maintained on a 12 h light/dark cycle with food (7012C LM-485 Mouse/Rat Sterilizable Diet, Harlan Teklad, Madison, Wis.) and water available ad libitum. Anabolic and androgenic activity of compound of Formula IX in intact animals was evaluated, and the dose response in acutely orchidectomized (ORX) animals was evaluated as well. Regenerative effects of compound of Formula IX in chronically (9 days) ORX rats were also assessed.
The compound was weighed and dissolved in 10% DMSO (Fisher) diluted with PEG 300 (Acros Organics, NJ) for preparation of the appropriate dosage concentrations. The animals were housed in groups of 2 to 3 animals per cage. Intact and ORX animals were randomly assigned to one of seven groups consisting of 4 to 5 animals per group. Control groups (intact and ORX) were administered vehicle daily. Compound of Formula IX was administered via oral gavage at doses of 0.01, 0.03, 0.1, 0.3, 0.75, and 1 mg/day to both intact and ORX groups.
Castrated animals (on day one of the study) were randomly assigned to dose groups (4-5 animals/group) of 0.01, 0.03, 0.1, 0.3, 0.75, and 1 mg/day, for dose-response evaluation. Dosing began nine days post ORX and was administered daily via oral gavage for fourteen days. The animals were sacrificed under anesthesia (ketamine/xyalzine, 87:13 mg/kg) after a 14-day dosing regimen, and body weights were recorded. In addition, ventral prostate, seminal vesicles, and levator ani muscle were removed, individually weighed, normalized to body weight, and expressed as a percentage of intact control. Student's T-test was used to compare individual dose groups to the intact control group. […]

Turning to `CC(=O)Nc1ccc(OC[C@](C)(O)C(=O)Nc2ccc([N+](=O)[O-])c(C(F)(F)F)c2)cc1` [XII, S-3-(4-acetylaminophenoxy)-2-hydroxy-2-methyl-N-(4-nitro-3-trifluoromethylphenyl) propionamide], in data set [1], the “maximal stimulation of levator ani muscle weight” value was found to be 101%. In data set [2], the adverse pharmacologic effects entry is recorded as “No adverse pharmacologic effects were observed”. In addition, the “Levator Ani weight” value in data set [2] (Castrated rats) is 100.65 ± 10.86 % of intact control; in data set [2] (Hemi-castrated rats), 108 % of intact control and 108.10 ± 8.92 % of intact control; in data set [2] (Intact rats) it was 109.15 ± 14.68 % of intact control. Moreover, the prostate weight was 32.55 ± 11.65 % of intact control in data set [2] (Castrated rats); 75 % of intact control and 74.69 ± 8.44 % of intact control in data set [2] (Hemi-castrated rats); 79 % of intact control and 79.41 ± 9.32 % of intact control in data set [2] (Intact rats). The “seminal vesicle weight” value was 16.47 ± 5.21 % of intact control in data set [2] (Castrated rats); 79 % of intact control and 78.55 ± 13.58 % of intact control in data set [2] (Hemi-castrated rats); 90.54 ± 12.10 % of intact control in data set [2] (Intact rats).
`C[C@](O)(COc1ccc(Cl)c(F)c1)C(=O)Nc1ccc(C#N)c(C(F)(F)F)c1` [XIV, (S)-3-(4-chloro-3-fluorophenoxy)-N-(4-cyano-3-(trifluoromethyl)phenyl)-2-hydroxy-2-methylpropanamide]: the “levator ani muscle weight” value in data set [3] (0.01 mg/day) is on record as 100%±10%; in data set [3] (0.03 mg/day), 98%±7%; in data set [3] (0.1 mg/day) it was 110%±5%; in data set [3] (0.3 mg/day) it was 110%±5%; in data set [3] (0.75 mg/day), 125%±10%; in data set [3] (1 mg/day), 129%±10%. The prostate weight was 117%±20% in data set [3] (0.01 mg/day); 98%±15% in data set [3] (0.03 mg/day); 82%±20% in data set [3] (0.1 mg/day); 62%±5% in data set [3] (0.3 mg/day); 107%±30% in data set [3] (0.75 mg/day); 110%±14% in data set [3] (1 mg/day).
